According to PMC8955197, “Polyketide Derivatives from the Endophytic Fungus Phaeosphaeria sp. LF5 Isolated from Huperzia serrata and Their Acetylcholinesterase Inhibitory Activities” (Journal of Fungi, 2022):

Target: AChE (Homo sapiens, UniProt P22303)
Test: biochemical
Details: mean ± SD of three parallel measurements; phosphate buffer pH 7.7, 25 °C; read-out: IC50 (µM), acetylcholinesterase inhibitory activity
Method: The assay was carried out in a 96-well microtiter plate reader. […] The mixture was incubated for 5 min at 25 °C. […] Percent inhibition was calculated through the following formula: (control absorbance–sample absorbance)/control absorbance × 100. The IC50 values were the means ± SD of three determinations.

Chain of AChE (P22303 32-614): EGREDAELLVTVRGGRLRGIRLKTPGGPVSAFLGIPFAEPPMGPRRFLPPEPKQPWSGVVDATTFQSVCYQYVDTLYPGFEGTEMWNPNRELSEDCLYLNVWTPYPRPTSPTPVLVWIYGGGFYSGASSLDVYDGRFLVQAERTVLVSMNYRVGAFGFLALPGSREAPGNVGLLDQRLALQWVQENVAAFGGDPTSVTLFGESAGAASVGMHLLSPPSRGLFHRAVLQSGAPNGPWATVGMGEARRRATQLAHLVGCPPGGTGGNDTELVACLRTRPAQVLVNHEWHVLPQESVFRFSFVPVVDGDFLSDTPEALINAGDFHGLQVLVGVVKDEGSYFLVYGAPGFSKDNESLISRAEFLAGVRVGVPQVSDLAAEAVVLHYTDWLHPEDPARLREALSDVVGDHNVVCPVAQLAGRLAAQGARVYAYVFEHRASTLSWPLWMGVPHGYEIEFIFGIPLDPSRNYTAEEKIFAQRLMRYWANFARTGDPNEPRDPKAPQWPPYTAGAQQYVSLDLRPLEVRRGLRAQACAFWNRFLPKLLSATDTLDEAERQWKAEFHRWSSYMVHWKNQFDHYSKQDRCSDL

Row | Structure (SMILES) | IC50 [µM]
1 | CC1C=C(CO)C(=O)O1 (centres unmarked) [Compound 1, 3-(hydroxymethyl)-5-methylfuran-2(5H)-one] | > 100
2 | CC1C=C(CC(=O)O)C(=O)O1 (centres unmarked) [Compound 2, 2-(5-methyl-2-oxo-2,5-dihydrofuran-3-yl)-acetic acid] | > 100
3 | COC(=O)CC1=CC(C)OC1=O (centres unmarked) [Compound 3, methyl-2-(5-methyl-2-oxo-2,5-dihydrofuran-3-yl)-acetate] | > 100
4 | C[C@@H]1C=C(C[C@@H](O)[C@H](C)O)C(=O)O1 [Compound 4] | 6.26 ± 0.15
5 | C/C(=C\C(=O)O)CCO [Compound 5, E-Δ^2-anhydromevalonic acid] | > 100
6 | CC1=CC(=O)OCC1 [Compound 6, 4-methyl-5,6-dihydropyren-2-one] | > 100
7 | Cc1cc(C(=O)O)cc(C(C)O)n1 (centres unmarked) [Compound 7, 2-(1-hydroxyethyl)-6-methylisonicotinic acid] | > 100
8 | C[C@@H]1Cc2cc(O)cc(O)c2C(=O)O1 [Compound 8, (R)-6-hydroxymellein] | > 100
9 | CC(O)C(O)c1cc2cc(O)cc(O)c2c(=O)o1 (stereo not drawn) [Compound 9, 6,8-dihydroxy-3-(1′R, 2′R-dihydroxypropyl)-isocoumarin] | > 100
10 | COc1cc(O)cc2cc(C)oc(=O)c12 [Compound 10, 6-hydroxy-8-methoxy-3-methylisocoumarin] | > 100
11 | C[C@@H](O)Cc1cc2cc(O)cc(O)c2c(=O)o1 [Compound 11, de-O-methyldiaporthin] | 21.2 ± 1.53
